Assay [1] concerns the target T1, hMC1-R (Homo sapiens, UniProt Q01726).
T1 construct: expressed in transfected cells; host or cells: CHO-K1
Nature of the assay: Radioligand binding assay, [125I]-NDP-α-MSH competition, CHO-K1 membranes. Particulars: Table 5; read-out: Ki hMC1-R.

The target of assay [2] is T2, hMC3-R (Homo sapiens, UniProt P41968).
T2 construct: expressed in transfected cells; host or cells: CHO-K1
The description is as above. The following applies: Table 5; read-out: Ki hMC3-R.

Assay [3] deals with T3, hMC4-R (Homo sapiens, UniProt P32245).
T3 construct: expressed in transfected cells; host or cells: CHO-K1
Described as above. Particulars: Table 5; read-out: Ki KMC4-R.

The target of assay [4] is T4, hMC5-R (Homo sapiens, UniProt P33032).
T4 construct: expressed in transfected cells; host or cells: CHO-K1
The assay is described as above. The following applies: Table 5.

Assay [5] has as its target T1, hMC1-R. Nature of the assay: cyclic AMP bioassay (ECL) in CHO-K1 cells. Format: cell-based. The following applies: Table 9C/9D; read-out: EC50 hMC1-R.
Method: (§5) Intracellular cyclic AMP (cAMP) levels were determined by an electrochemiluminescence (ECL) assay (Meso Scale Discovery®, Gaithersburg, Md.; referred to hereinafter as MSD). […] Transgenic CHO-K1 cells stably expressing hMC receptor subtypes 1, 3, 4 or 5 were dispensed at a density of approximately 7,000 cells/well in 384-well Multi-Array®plates (MSD) containing integrated carbon electrodes and coated with anti-cAMP antibody. Increasing concentrations of the test compounds were added and the cells were incubated for approximately 40 minutes at approximately 37° C. […] At the end of the second incubation period read buffer (Tris-buffered solution containing an ECL co-reactant and Triton X-100 at ph 7.8) was added and the cAMP levels in the cell lysates were immediately determined by ECL detection with a Sector Imager 6000 Reader® (MSD). Data were analyzed using a computer-assisted non-linear regression analysis (XL fit; IDBS) and reported as either an EC50 value or a Kb value.
(§6) The Kb value reflects the potency of an antagonist and is determined by Schild analysis. In brief, concentration-response curves of an agonist are carried out in the presence of increasing concentrations of an antagonist. […] It is calculated by extrapolating the line on a Schild plot to zero on the y-axis.
Assay [6] deals with T2, hMC3-R. Briefly: cyclic AMP bioassay (ECL) in CHO-K1 cells. Format: cell-based. Particulars: Table 9C/9D, antagonist potency by Schild analysis; read-out: Kb hMC3-R.
Method: as §5, §6
Assay [7] has as its target T3, hMC4-R. Nature of the assay: cyclic AMP bioassay (ECL) in CHO-K1 cells. Type of assay: cell-based. The following applies: Table 9C/9D, antagonist potency by Schild analysis; read-out: Kb MC4-R.
Method: as §5, §6
Assay [8] deals with T4, hMC5-R. Briefly: cyclic AMP bioassay (ECL) in CHO-K1 cells. Format: cell-based.
Method: as §5, §6
Assay [9] relates to obese Zucker rats. Nature of the assay: Body weight and food intake, 7 day sc infusion. Type of assay: in vivo, rat. Particulars: for decrease in body weight gain: day 7, vs vehicle; for decrease in food intake: end of 7 day treatment. The method, then:
(§1) The dosage forms were prepared prior to the start of the experiment and used to fill the pumps under sterile conditions. Pumps were primed overnight at 37° C. in sterile saline and implanted on the starting day of the experiment.
The Zucker rats are obese due to a spontaneous mutation in the […].
(§2) Three groups of eight obese male Zucker rats (350-400 g) were housed in individual cages and maintained under 12:12 hour light:dark conditions with both food (Harlan Teklad Sterilized Rodent Diet LM-485) and water available ad libitum.
(§3) On the morning of day 1, the rats were anesthetized using chlorohydrate anesthetic and implanted with a sub-cutaneous infusion pump (Alzet® 2002) just under the skin. […] Individual body weight and food and water consumption were measured daily at 0800 hours for 7 days.

Assay [10] deals with obese Zucker rats. Nature of the assay: Intravenous glucose tolerance test after 7 day sc infusion. Type of assay: in vivo, rat. How it is done:
as §1, §2, §3
(§4) On day 7 a right atrial cannula was implanted in the jugular vein under cholorohydrate anesthesia. The animals were fasted overnight and an intravenous (iv) glucose tolerance test was performed. Glucose (1 g/kg) was injected at time 0 and blood samples were taken via the cannula at 0, 2.5, 5, 10, 20 and 40 minutes post-injection. Plasma was collected and assayed for glucose (Glucose (Trinder) Assay; Diagnostic Chemicals Limited, Charlottetown, P.E.I., Canada; Cat #220-32) and insulin (Mercodia Rat Insulin ELISA; Mercodia, Uppsala, Sweden; ALPCO 10-1124-10) content. At the conclusion of the glucose tolerance test and additional serum samples were collected and assayed for triglycerides (Triglyceride L-Type TG H kit: Wako Diagnostics, Richmond, Va.), cholesterol (Cholesterol E assay kit: Wako Diagnostics, Richmond, Va.) and free fatty acids (Fatty Acid HR series NEFA-HR2 kit: Wako Diagnostics, Richmond, Va.).

For assay [11], the system named is obese Zucker rats. Briefly: Serum triglycerides, cholesterol and free fatty acids after 7 day sc infusion. Particulars: 50 and 500 nmole/kg/day sc infusion. Type of assay: in vivo, rat. The method, then: as §1, §2, §3, §4

Molecules are shown by their SMILES. Entries after “also recorded” stand apart in the source; their conditions may differ. Where two headings read alike, the source gives them in different places.

T4 sequence (P33032 whole entry): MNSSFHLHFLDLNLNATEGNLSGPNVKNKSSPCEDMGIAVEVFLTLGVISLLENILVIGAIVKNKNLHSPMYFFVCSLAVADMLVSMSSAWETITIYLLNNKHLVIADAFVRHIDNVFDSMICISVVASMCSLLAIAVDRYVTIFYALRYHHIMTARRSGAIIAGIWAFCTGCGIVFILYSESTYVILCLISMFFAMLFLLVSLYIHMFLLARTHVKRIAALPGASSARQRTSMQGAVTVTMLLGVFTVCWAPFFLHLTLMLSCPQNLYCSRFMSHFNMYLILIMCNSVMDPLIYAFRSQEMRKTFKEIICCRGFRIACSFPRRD
T3 sequence (P32245 whole entry): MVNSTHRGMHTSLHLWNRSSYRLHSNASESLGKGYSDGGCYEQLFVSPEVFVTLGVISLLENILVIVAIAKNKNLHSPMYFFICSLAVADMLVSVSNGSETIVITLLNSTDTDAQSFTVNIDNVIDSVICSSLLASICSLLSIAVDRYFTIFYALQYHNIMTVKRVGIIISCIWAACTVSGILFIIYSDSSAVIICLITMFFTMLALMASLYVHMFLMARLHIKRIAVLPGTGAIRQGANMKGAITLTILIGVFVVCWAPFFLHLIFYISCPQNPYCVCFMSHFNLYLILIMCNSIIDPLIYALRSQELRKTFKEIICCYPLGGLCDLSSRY
T1 sequence (Q01726 whole entry): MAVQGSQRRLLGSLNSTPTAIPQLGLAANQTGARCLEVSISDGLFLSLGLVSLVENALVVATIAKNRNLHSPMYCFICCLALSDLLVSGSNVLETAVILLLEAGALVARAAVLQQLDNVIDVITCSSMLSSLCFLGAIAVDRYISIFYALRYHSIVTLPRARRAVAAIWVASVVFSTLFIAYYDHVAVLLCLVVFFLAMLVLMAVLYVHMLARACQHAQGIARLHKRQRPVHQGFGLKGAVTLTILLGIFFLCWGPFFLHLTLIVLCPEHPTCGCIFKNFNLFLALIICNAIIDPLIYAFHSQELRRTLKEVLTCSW
T2 sequence (P41968 whole entry): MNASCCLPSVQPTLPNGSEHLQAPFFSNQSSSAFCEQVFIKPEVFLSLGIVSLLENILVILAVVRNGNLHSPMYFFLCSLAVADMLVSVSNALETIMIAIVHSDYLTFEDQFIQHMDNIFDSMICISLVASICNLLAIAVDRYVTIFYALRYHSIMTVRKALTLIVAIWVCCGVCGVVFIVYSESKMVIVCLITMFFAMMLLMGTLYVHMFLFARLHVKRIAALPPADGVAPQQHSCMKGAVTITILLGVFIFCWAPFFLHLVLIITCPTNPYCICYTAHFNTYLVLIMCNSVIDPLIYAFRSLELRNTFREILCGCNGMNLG

In the case of `CC(=O)N[C@@H](CC1CCCCC1)C(=O)N[C@H]1CC(=O)NCCCC[C@@H](C(N)=O)NC(=O)CCCNC(=O)[C@H](Cc2c[nH]c3ccccc23)NC(=O)[C@H](CCCNC(=N)N)NC(=O)[C@@H](Cc2ccc3ccccc3c2)NC(=O)[C@H](Cc2c[nH]cn2)NC1=O` [Ac-Cha-c(Asp-His-D-2-Nal-Arg-Trp-Gaba-Lys)-NH2], the Ki (commonly the dissociation constant of the complex between target and ligand, obtained from inhibition or displacement) was 0.576 nM on hMC1-R [1], 3.98 nM on hMC3-R [2], 2.82 nM at hMC4-R [3] and 3.91 nM on hMC5-R [4] (read-out: Ki hMC5-R). Besides, the EC50 – broadly, the concentration needed to bring the measured effect to its halfway point – at hMC1-R [5] is 1.27 nM; on hMC5-R [8] (Table 9C/9D, read-out: EC50 hMC5-R) it was 0.736 nM. Besides, the figures for the Kb at hMC3-R [6] and on hMC4-R [7] were 3.02 nM and 0.442 nM, respectively.
Molecule `CC(=O)N[C@@H](CCCNC(=N)N)C(=O)N[C@H]1CSSC[C@@H](C(N)=O)NC(=O)[C@H](Cc2c[nH]c3ccccc23)NC(=O)[C@H](CCCNC(=N)N)NC(=O)[C@@H](Cc2ccccc2)NC(=O)[C@H](Cc2c[nH]cn2)NC(=O)[C@@H](C)NC1=O` [Compound A, Ac-Arg-c(Cys-D-Ala-His-D-Phe-Arg-Trp-Cys)-NH2] gave a Ki at hMC5-R [4] (Ki hMC5-R) of 430 nM. This molecule also displayed a concentration for a half-maximal effect (EC50) at hMC5-R [8] of 1630 nM. Moreover, in the assay with obese Zucker rats [9] (50 nmole/kg/day sc infusion), the “decrease in body weight gain” value is reported as 35 g and the “decrease in food intake” value stood at 60 g. Besides, in the assay on obese Zucker rats [9] (500 nmole/kg/day sc infusion), the “decrease in body weight gain” value was 60 g and the “decrease in food intake” value amounted to 100 g. In addition, in the assay on obese Zucker rats [10] (500 nmole/kg/day sc infusion, fasted overnight), the “basal fasted plasma glucose” value is reported as “decreased”. Further, the “plasma glucose levels after a glucose challenge” value with obese Zucker rats [10] (50 and 500 nmole/kg/day, glucose 1 g/kg iv) is “decreased”. In addition, the “amount of insulin required to clear the glucose challenge” value in the assay with obese Zucker rats [10] (7 day infusion, glucose tolerance test) was “decreased”. Moreover, in the assay on obese Zucker rats [11], the serum cholesterol result is “Dose-related decrease”, the “serum free fatty acids” value is recorded as “dose-related decreases; also recorded: Decrease” and the serum triglycerides entry is listed as “Dose-related decrease”.

Values taken from patent US20120135923A1, “Use of Melanocortins to Treat Dyslipidemia” (IPSEN PHARMA, S.A.S., priority 2009, published 2012).
